US20110060043A1, “INHIBITORS OF CELL PROLIFERATION AND USES THEREOF” (European Molecular Biology Laboratory (EMBL), priority 2008, published 2011)

Test system: MCF-7 cells
Test: Cytotoxicity assay (ATPLite cell viability, 72 h) on MCF-7 cells
Assay type: cell-based
Settings: Homo sapiens, MCF7; 72 hours incubation, triplicate, ATP levels (ATPLite), inhibition of growth vs DMSO only control
Procedure: Preferred compounds were analyzed for their ability to inhibit growth of tumour cells (e.g. MCF7, HL60, LL2, HeLa, PC-3, A549 and A375 cells) in vitro. Growth inhibition was tested at various concentrations in a 10 point two fold serial dilution and cells were incubated under standard mammalian tissue culture conditions for 72 hours in triplicate. Cell viability was measured by measuring ATP levels in viable cells using the ATPLite kit (PerkinElmer) as described in the user manual. Raw data was transformed to percentage inhibition of growth compared to a DMSO only control and values were expressed as IC50 in micromolar calculated using XLfit (IDBS).

| Compound | IC50 |
| --- | --- |
| COC(=O)c1ccc(C)c(NS(=O)(=O)c2ccc(OC)cc2)c1 [Compound (IV), 3-[[(4-methoxyphenyl)sulfonyl]amino]-4-methyl-benzoic acid methyl ester] | 0.23 µM |
| CCOc1ccc(S(=O)(=O)Nc2cc(C(=O)OC)ccc2C)cc1 [Compound (V), 3-[[(4-ethoxyphenyl)sulfonyl]amino]-4-methyl-benzoic acid methyl ester] | 0.16 µM |
| COC(=O)c1ccc(C)c(NS(=O)(=O)c2ccc(Cl)cc2)c1 [Compound (VI), 3-[[(4-chlorophenyl)sulfonyl]amino]-4-methyl-benzoic acid methyl ester] | 1.1 µM |
| COC(=O)c1ccc(C)c(NS(=O)(=O)c2ccc(C)cc2)c1 [Compound (IX), 3-[[(4-methylphenyl)sulfonyl]amino]-4-methyl-benzoic acid methyl ester] | 0.28 µM |
